The structures appear in SMILES notation.

On to `Clc1ccccc1CSc1nc(-c2ccc(Br)cc2)cc(-c2ccc(Br)cc2)n1` [Compound 6a, 4,6-Bis(4-bromophenyl)-2-((2-chlorobenzyl)thio)pyrimidine], for which the melting point was 147 to 148 °C.
For `Clc1ccc(CSc2nc(-c3ccc(Br)cc3)cc(-c3ccc(Br)cc3)n2)cc1` [Compound 6b, 4,6-Bis(4-bromophenyl)-2-((4-chlorobenzyl)thio)pyrimidine], the melting point is 176 to 178 °C.
Compound `Fc1ccccc1CSc1nc(-c2ccc(Br)cc2)cc(-c2ccc(Br)cc2)n1` [Compound 6d, 4,6-Bis(4-bromophenyl)-2-((2-fluorobenzyl)thio)pyrimidine] registered a melting point of 149 to 150 °C.
As for `Cc1ccc(-c2cc(-c3cccc(Br)c3)nc(SCc3ccccc3Cl)n2)cc1` [Compound 6f, 4-(3-Bromophenyl)-2-((2-chlorobenzyl)thio)-6-(p-tolyl)pyrimidine], the figure is 107 to 110 °C; as for `Cc1ccc(-c2cc(-c3cccc(Br)c3)nc(SCc3ccccc3F)n2)cc1` [Compound 6i, 4-(3-Bromophenyl)-2-((2-fluorobenzyl)thio)-6-(p-tolyl)pyrimidine], 100 to 104 °C; as for `Cc1ccc(-c2cc(-c3ccc(Br)cc3)nc(SCc3ccccc3Br)n2)cc1` [Compound 6k, 2-((2-Bromobenzyl)thio)-4-(4-bromophenyl)-6-(p-tolyl)pyrimidine], 123 to 126 °C.
Regarding `Cc1ccc(-c2cc(-c3ccc(Br)cc3)nc(SCc3ccc(F)cc3)n2)cc1` [Compound 6l, 4-(4-Bromophenyl)-2-((4-fluorobenzyl)thio)-6-(p-tolyl)pyrimidine], the melting point lay within 115 to 124 °C.
Regarding `Cc1ccc(-c2cc(-c3ccc(Br)cc3)nc(SCc3ccccc3F)n2)cc1` [Compound 6m, 4-(4-Bromophenyl)-2-((2-fluorobenzyl)thio)-6-(p-tolyl)pyrimidine], the melting point lay in the range of 124 to 127 °C.
The result for `Cc1ccc(-c2cc(-c3ccc(Br)cc3)nc(SCc3cccc(F)c3)n2)cc1` [Compound 6n, 4-(4-Bromophenyl)-2-((3-fluorobenzyl)thio)-6-(p-tolyl)pyrimidine] reads 106 to 109 °C; that for `Cc1ccc(-c2cc(-c3ccc(Br)cc3)nc(SCc3ccccc3)n2)cc1` [Compound 6o, 2-(Benzylthio)-4-(4-bromophenyl)-6-(p-tolyl)pyrimidine], 129 to 130 °C.
In turn, `Cc1ccc(-c2cc(-c3cccc(Br)c3)nc(SCc3ccc(Br)cc3)n2)cc1` [Compound 6r, 2-((4-Bromobenzyl)thio)-4-(3-bromophenyl)-6-(p-tolyl)pyrimidine] returned a melting point of 135 to 138 °C.
As for `Clc1ccccc1CSc1nc(-c2ccc(Br)cc2)cc(-c2cccc(Br)c2)n1` [Compound 6s, 4-(3-Bromophenyl)-6-(4-bromophenyl)-2-((2-chlorobenzyl)thio)pyrimidine], the figure is 129 to 132 °C; as for `Fc1cccc(CSc2nc(-c3ccc(Br)cc3)cc(-c3cccc(Br)c3)n2)c1` [Compound 6t, 4-(3-Bromophenyl)-6-(4-bromophenyl)-2-((3-fluorobenzyl)thio)pyrimidine], 94 to 96 °C.
